Tests used:
[1] = Clearance in mouse plasma at 5 mg/kg, iv or 15 mg/kg, po by HPLC/MS analysis; format: ADME, organism-based
[2] = Apparent volume of distribution in mouse plasma at 5 mg/kg, iv or 15 mg/kg, po by HPLC/MS analysis; format: ADME, organism-based; conditions: read-out: Vz
[3] = AUC in mouse plasma at 15 mg/kg, po by HPLC/MS analysis; format: ADME, organism-based
[4] = Half life in mouse plasma at 15 mg/kg, po by HPLC/MS analysis; format: ADME, organism-based
[5] = Oral bioavailability in mouse plasma at 15 mg/kg by HPLC/MS analysis; format: ADME, organism-based
[6] = molecular target: T1, Phosphatidylinositol 4,5-bisphosphate 3-kinase catalytic subunit delta isoform (Homo sapiens, UniProt O00329); assay: Inhibition of PI3Kdelta (unknown origin) using biotinylated PIP2 as substrate in presence of streptavidin-APC by FRET assay
T1 sequence (O00329 whole entry): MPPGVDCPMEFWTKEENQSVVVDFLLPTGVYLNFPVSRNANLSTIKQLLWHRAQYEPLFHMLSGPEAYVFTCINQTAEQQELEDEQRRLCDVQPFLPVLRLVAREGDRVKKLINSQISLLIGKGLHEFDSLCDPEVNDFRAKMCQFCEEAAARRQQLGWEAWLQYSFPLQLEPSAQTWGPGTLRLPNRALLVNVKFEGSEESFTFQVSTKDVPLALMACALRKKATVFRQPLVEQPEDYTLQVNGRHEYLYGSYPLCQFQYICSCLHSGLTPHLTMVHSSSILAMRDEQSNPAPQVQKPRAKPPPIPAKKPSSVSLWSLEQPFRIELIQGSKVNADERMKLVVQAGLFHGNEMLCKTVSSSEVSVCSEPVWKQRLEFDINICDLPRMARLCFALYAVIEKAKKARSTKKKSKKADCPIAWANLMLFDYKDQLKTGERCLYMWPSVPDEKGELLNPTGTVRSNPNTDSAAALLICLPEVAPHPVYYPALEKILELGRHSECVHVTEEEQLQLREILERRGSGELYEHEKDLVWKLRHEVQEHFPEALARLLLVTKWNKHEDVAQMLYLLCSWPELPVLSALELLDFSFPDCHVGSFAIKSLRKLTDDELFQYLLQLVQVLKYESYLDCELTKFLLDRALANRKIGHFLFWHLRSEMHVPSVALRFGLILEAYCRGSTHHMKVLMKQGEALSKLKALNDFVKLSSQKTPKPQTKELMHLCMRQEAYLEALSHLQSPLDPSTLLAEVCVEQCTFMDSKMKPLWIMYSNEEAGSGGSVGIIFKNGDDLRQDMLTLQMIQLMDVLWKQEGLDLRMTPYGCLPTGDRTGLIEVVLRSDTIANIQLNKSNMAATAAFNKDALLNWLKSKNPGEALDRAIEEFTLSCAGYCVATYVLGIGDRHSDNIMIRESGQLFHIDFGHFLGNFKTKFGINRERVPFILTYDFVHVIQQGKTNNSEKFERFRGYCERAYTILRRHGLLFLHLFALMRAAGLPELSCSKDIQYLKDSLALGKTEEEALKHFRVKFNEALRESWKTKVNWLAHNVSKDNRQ

[7] = Drug metabolism in mouse liver microsomes assessed as compound oxidation by measuring parent compound remaining at 1 uM after 30 mins in presence of NADPH by LC-MS/MS analysis; format: ADME; conditions: for remaining at 0.5 h, 1 µM: liver microsomes, read-out: Stability
[8] = Drug metabolism in mouse liver microsomes assessed as UGT-mediated compound glucuronidation by measuring parent compound remaining at 5 uM after 30 mins in presence of UDPGA by LC-MS/MS analysis; format: ADME; conditions: liver microsomes, read-out: Stability
[9] = Drug metabolism in human liver microsomes assessed as compound oxidation by measuring parent compound remaining at 1 uM after 30 mins in presence of NADPH by LC-MS/MS analysis; format: ADME; conditions: liver microsomes, read-out: Stability
[10] = Drug metabolism in human liver microsomes assessed as UGT-mediated compound glucuronidation by measuring parent compound remaining at 5 uM after 30 mins in presence of UDPGA by LC-MS/MS analysis; format: ADME; conditions: read-out: Stability
[11] = Drug metabolism in rat liver microsomes assessed as compound oxidation by measuring parent compound remaining at 1 uM after 30 mins in presence of NADPH by LC-MS/MS analysis; format: ADME; conditions: liver microsomes, read-out: Stability
[12] = Drug metabolism in dog liver microsomes assessed as compound oxidation by measuring parent compound remaining at 1 uM after 30 mins in presence of NADPH by LC-MS/MS analysis; format: ADME, Canis lupus familiaris; conditions: 0.5 h
[13] = Efflux ratio of apparent permeability from basolateral to apical side over apical to basolateral side in human Caco2 cells; format: ADME, cell-based; conditions: caco-2
[14] = Protein binding in mouse plasma; format: ADME, cell-free; conditions: read-out: PPB (converted)
[15] = Clearance in mouse plasma at 2 mg/kg, iv or 10 mg/kg, po by HPLC/MS analysis; format: ADME, organism-based; conditions: in vivo
[16] = Apparent volume of distribution in mouse plasma at 2 mg/kg, iv or 10 mg/kg, po by HPLC/MS analysis; format: ADME, organism-based; conditions: in vivo
[17] = AUC in mouse plasma at 10 mg/kg, po by HPLC/MS analysis; format: ADME, organism-based; conditions: plasma, read-out: AUC
[18] = Half life in mouse plasma at 10 mg/kg, po by HPLC/MS analysis; format: ADME, organism-based; conditions: plasma
[19] = Oral bioavailability in mouse plasma at 10 mg/kg by HPLC/MS analysis; format: ADME, organism-based; conditions: plasma
[20] = molecular target: T2, Tyrosine-protein kinase BTK (Homo sapiens, UniProt Q06187)
T2 sequence (Q06187 whole entry, canonical isoform): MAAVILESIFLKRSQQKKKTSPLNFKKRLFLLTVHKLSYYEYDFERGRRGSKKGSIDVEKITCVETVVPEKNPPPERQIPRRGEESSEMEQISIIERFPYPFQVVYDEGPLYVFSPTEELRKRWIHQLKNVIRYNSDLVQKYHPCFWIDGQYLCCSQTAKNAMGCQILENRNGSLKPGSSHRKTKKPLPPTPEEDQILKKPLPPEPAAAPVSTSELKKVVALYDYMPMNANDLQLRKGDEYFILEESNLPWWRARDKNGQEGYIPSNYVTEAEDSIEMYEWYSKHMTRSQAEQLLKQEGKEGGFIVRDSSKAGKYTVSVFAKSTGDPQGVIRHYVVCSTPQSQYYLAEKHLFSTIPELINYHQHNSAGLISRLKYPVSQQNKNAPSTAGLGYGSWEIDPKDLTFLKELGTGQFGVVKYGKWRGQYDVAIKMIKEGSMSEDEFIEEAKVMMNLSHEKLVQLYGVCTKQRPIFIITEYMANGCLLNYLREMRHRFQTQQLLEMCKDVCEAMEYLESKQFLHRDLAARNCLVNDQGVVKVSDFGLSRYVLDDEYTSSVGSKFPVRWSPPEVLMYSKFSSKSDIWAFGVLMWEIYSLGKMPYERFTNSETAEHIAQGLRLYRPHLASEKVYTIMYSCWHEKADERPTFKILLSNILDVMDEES

[21] = molecular target: T3, Phosphatidylinositol 4,5-bisphosphate 3-kinase catalytic subunit delta isoform (Homo sapiens) (UniProt O00329); assay: Inhibition of PI3Kdelta (unknown origin) using biotinylated PIP2 as substrate at 100 nM in presence of streptavidin-APC by FRET assay
T3 sequence (whole entry): T1 sequence (O00329 whole entry)

[22] = molecular target: T2, Tyrosine-protein kinase BTK; conditions: at 100 nM
[23] = species: Homo sapiens; assay: Selectivity ratio of IC50 for PI3Kalpha (unknown origin) to IC50 for PI3Kdelta (unknown origin)
[24] = species: Homo sapiens; assay: Selectivity ratio of IC50 for PI3Kbeta (unknown origin) to IC50 for PI3Kdelta (unknown origin)
[25] = species: Homo sapiens; assay: Selectivity ratio of IC50 for PI3Kgamma (unknown origin) to IC50 for PI3Kdelta (unknown origin)
[26] = species: Homo sapiens; assay: Selectivity ratio of IC50 for human BMX to IC50 for human BTK
[27] = species: Homo sapiens; assay: Selectivity ratio of IC50 for human TEC to IC50 for human BTK
[28] = Clearance in mouse plasma at 1 mg/kg, iv or 5 mg/kg, po by HPLC/MS analysis; format: ADME, organism-based
[29] = Apparent volume of distribution in mouse plasma at 1 mg/kg, iv or 5 mg/kg, po by HPLC/MS analysis; format: ADME, organism-based; conditions: read-out: Vz
[30] = AUC in mouse plasma at 5 mg/kg, po by HPLC/MS analysis; format: ADME, organism-based
[31] = Half life in mouse plasma at 5 mg/kg, po by HPLC/MS analysis; format: ADME, organism-based
[32] = Oral bioavailability in mouse plasma at 5 mg/kg by HPLC/MS analysis; format: ADME, organism-based

clearance [1] [mL/min/kg]	Vd [2] [L/kg]	AUC [3] [µM·h]	half-life [4] [h]	bioavailability [5] [%]	IC50 [6] [µM]	remaining at 0.5 h, 5 µM [8] [%]	remaining at 0.5 h, 1 µM [9] [%]	remaining at 0.5 h, 5 µM [10] [%]	inhibition [21] [%]	inhibition [22] [%]	SMILES	further results
122	5.45	0.211	0.8	3.7	–	–	–	–	–	–	Nc1ncnc2c1c(-c1ccc(F)c(O)c1)nn2C1Cc2ccccc2C1	–
–	–	–	–	–	–	–	–	–	26	6.6	Nc1ncnc2c1c(-c1cc(F)c3c(c1)NCCO3)nn2C1Cc2cc(F)ccc2C1=O (racemic)	–
85	6.01	0.177	3.1	2.2	0.008	< 1	67	1.3	–	–	Nc1ncnc2c1c(-c1cc(O)cc(F)c1)nn2C1Cc2ccccc2C1	remaining at 0.5 h, 1 µM [7]: 25%
–	–	–	–	–	–	–	–	–	41	66	Nc1ncnc2c1c(-c1cccc(O)c1)nn2C1Cc2ccccc2C1	–
154	12.1	0.073	0.95	1.7	0.003	5.1 to 7.1	75	3.7	87	74	Nc1ncnc2c1c(-c1cc(O)c(F)c(F)c1)nn2C1Cc2ccccc2C1	remaining at 0.5 h, 1 µM [7]: 78%
–	–	–	–	–	0.055	–	–	–	–	–	Nc1ccc2c(c1)CC(n1nc(-c3cc(F)c4c(c3)NCCO4)c3c(N)ncnc31)CC2 (single isomer, unassigned; (+))	IC50 [20]: 0.176 µM
–	–	–	–	–	–	13	66	5.2	–	–	Nc1ncnc2c1c(-c1ccc(Br)c(O)c1)nn2C1Cc2ccccc2C1	clearance [28]: 63.7 mL/min/kg; Vd [29]: 5.9 L/kg; AUC [30]: 0.213 µM·h; half-life [31]: 2.3 h; bioavailability [32]: 6.9%; remaining at 0.5 h, 1 µM [7]: 53%

Continued, compound first:

SMILES	clearance [1] [mL/min/kg]	Vd [2] [L/kg]	AUC [3] [µM·h]	half-life [4] [h]	bioavailability [5] [%]	IC50 [6] [µM]	remaining at 0.5 h, 5 µM [8] [%]	remaining at 0.5 h, 1 µM [9] [%]	remaining at 0.5 h, 5 µM [10] [%]	inhibition [21] [%]	inhibition [22] [%]	further results
Nc1ncnc2c1c(-c1cc(O)cc(Cl)c1)nn2C1Cc2ccccc2C1	156	11.5	0.033	0.6	0.8	0.004	–	–	–	–	–	–
Nc1ccc2c(c1)CC(n1nc(-c3cc(F)c4c(c3)NCCO4)c3c(N)ncnc31)C2 (stereo in doubt; (+)-32) [listing 1 of 2 here]	–	–	–	–	–	0.047	93	71	91	–	–	Stability ([7]; microsomes, 0.5 h, 1 µM): 28%; remaining at 0.5 h, 1 µM [11]: 45%; Stability [12]: 65%; efflux ratio [13]: 1.3; fraction unbound [14]: 0.02; CL [15]: 24.3 mL/min/kg; Vz [16]: 0.58 L/kg; AUC [17]: 9.28 µM·h; half-life [18]: 1.2 h; bioavailability [19]: 57%; IC50 [20]: 0.024 µM
Nc1ncnc2c1c(-c1cc(F)c3c(c1)NCCO3)nn2C1Cc2ccccc2C1	–	–	–	–	–	–	91	–	–	53	52	–
Nc1cc(-c2nn(C3Cc4ccccc4C3)c3ncnc(N)c23)cc(F)c1F	–	–	–	–	–	–	97	–	–	26	63	–
Nc1ncnc2c1c(-c1cc(F)c3c(c1)NCCO3)nn2C1CCc2ccccc2C1 (racemic)	–	–	–	–	–	–	–	–	–	52	34	–
Nc1ccc2c(c1)CC(n1nc(-c3cc(F)c4c(c3)NCCO4)c3c(N)ncnc31)C2 (stereo in doubt; (+)-32) [listing 2 of 2 here]	–	–	–	–	–	–	–	–	–	–	–	Ratio IC50 [23]: 6; Ratio IC50 [24]: 34; Ratio IC50 [25]: 2; Ratio IC50 [26]: 4; Ratio IC50 [27]: 20

From ChEMBL document CHEMBL3864190, “Discovery of Pyrazolopyrimidine Derivatives as Novel Dual Inhibitors of BTK and PI3Kδ” (ACS Med Chem Lett, 2016)
